Test results taken from ChEMBL document CHEMBL4706476, “Novel Tetrahydropyrido[4,3-d]pyrimidines as Potent Inhibitors of Chaperone Heat Shock Protein 90” (J Med Chem, 2016).
In brackets after ≈: the same amount, converted by molar mass.

What was measured:
HCT-116 = test: cells; details: Homo sapiens, HCT-116, 72 h
Description: Antiproliferative activity against human HCT-116 cells assessed as reduction in cell viability incubated for 72 hrs by MTT assay

[1] = biological target: Heat shock protein HSP 90-alpha (Homo sapiens, UniProt P07900); test: Displacement of FITC-geldanamycin from N-terminal HSP90alpha (unknown origin) after 30 mins by fluorescence polarization competitive binding assay
MCF7 = test: cells; details: Homo sapiens, MCF7, 72 h
[2] = Selectivity ratio of IC50 for inhibition of FITC-geldanamycin binding to N-terminal GRP94 (unknown origin) to IC50 for inhibition of FITC-geldanamycin binding to N-terminal HSP90alpha (unknown origin)
[3] = Distribution coefficient, logD of compound at pH 7.4; format: physicochemical; details: octanol/water
[4] = Intrinsic aqueous solubility of the compound; format: physicochemical
Endoplasmin = Endoplasmin (Homo sapiens, UniProt P14625); test: Displacement of FITC-geldanamycin from N-terminal GRP94 (unknown origin) after 30 mins by fluorescence polarization competitive binding assay
[5] = Permeability of the compound at pH 7.4 by PAMPA; format: ADME; details: read-out: permeability

Endoplasmin, sequence (P14625 whole entry): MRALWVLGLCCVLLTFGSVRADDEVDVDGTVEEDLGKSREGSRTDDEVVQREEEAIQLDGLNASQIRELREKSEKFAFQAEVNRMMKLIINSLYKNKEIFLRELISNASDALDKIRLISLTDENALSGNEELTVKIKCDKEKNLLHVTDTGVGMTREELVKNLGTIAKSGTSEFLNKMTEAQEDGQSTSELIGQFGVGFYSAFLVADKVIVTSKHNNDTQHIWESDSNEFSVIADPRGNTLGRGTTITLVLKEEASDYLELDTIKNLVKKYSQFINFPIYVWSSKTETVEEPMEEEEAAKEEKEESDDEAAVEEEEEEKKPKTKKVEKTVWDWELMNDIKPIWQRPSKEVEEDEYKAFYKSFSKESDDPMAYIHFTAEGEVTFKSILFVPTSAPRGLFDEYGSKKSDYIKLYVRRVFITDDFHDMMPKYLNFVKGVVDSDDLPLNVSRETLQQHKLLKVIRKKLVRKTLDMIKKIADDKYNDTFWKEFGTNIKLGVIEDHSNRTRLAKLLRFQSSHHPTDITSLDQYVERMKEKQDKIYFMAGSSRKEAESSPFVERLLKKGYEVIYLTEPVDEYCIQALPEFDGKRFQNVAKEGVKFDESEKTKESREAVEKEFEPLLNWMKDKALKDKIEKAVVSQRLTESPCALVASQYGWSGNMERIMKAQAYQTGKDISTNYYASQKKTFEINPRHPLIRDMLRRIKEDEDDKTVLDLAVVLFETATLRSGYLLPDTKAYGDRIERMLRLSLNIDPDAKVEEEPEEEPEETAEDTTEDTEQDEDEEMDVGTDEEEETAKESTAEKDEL

| SMILES | IC50 (HCT-116) [nM] | IC50 [1] [nM] | IC50 (MCF7) [nM] | Ratio IC50 [2] | logD [3] | solubility [4] [µg/mL] | IC50 (Endoplasmin) [nM] | Papp [5] [×10⁻⁶ cm/s] |
| --- | --- | --- | --- | --- | --- | --- | --- | --- |
| CC(C)c1cc(C(=O)N2CCc3nc(OC4CCCC4)ncc3C2)c(O)cc1O | 1720 | 71 | 1190 | – | – | – | – | – |
| COCCOc1nc2c(c(OC)n1)CN(C(=O)c1cc(C(C)C)c(O)cc1O)CC2 | 250 | 30 | 140 | 7.7 | 2.56 | 93.5 (≈ 224 µM) | 232 | 75.8 |
| CCNc1ncc2c(n1)CCN(C(=O)c1cc(C(C)C)c(O)cc1O)C2 | 1560 | 167 | 1580 | – | – | – | – | – |
| CC(C)c1cc(C(=O)N2CCc3nc(N4CCCC4)ncc3C2)c(O)cc1O | 1140 | 113 | 4550 | – | – | – | – | – |
| CCCNc1ncc2c(n1)CCN(C(=O)c1cc(C(C)C)c(O)cc1O)C2 | 2340 | 238 | 2370 | – | – | – | – | – |
| CC(C)c1cc(C(=O)N2CCc3nc(OCCN4CCOCC4)ncc3C2)c(O)cc1O | 1060 | 28 | 1230 | – | 1.48 | 140 (≈ 316 µM) | – | 30.2 |
| COc1ncc2c(n1)CCN(C(=O)c1cc(C(C)C)c(O)cc1O)C2 | 1160 | 75 | 630 | 6.6 | – | – | 498 | – |
| Cc1ncc2c(n1)CN(C(=O)c1cc(Br)c(O)cc1O)C2 | 1550 | 262 | 3720 | – | – | – | – | – |
| COCCOc1nc2c(c(NC(C)C)n1)CN(C(=O)c1cc(C(C)C)c(O)cc1O)CC2 | 790 | 30 | 250 | 26.2 | 2.98 | 137 (≈ 309 µM) | 787 | 62.4 |
| COCCOc1nc2c(c(NC3CC3)n1)CN(C(=O)c1cc(C(C)C)c(O)cc1O)CC2 | 230 | 19 | 160 | 11.4 | 2.45 | 157 (≈ 355 µM) | 216 | 56.4 |
| Cc1ncc2c(n1)CCN(C(=O)c1cc(Cl)c(O)cc1O)C2 | – | 101 | – | – | – | – | – | – |
| CC(C)c1cc(C(=O)N2CCc3nc(N4CCOCC4)ncc3C2)c(O)cc1O | 1470 | 110 | 1820 | – | – | – | – | – |
| CC(C)c1cc(C(=O)N2CCc3nc(N4CCCCC4)ncc3C2)c(O)cc1O | 1550 | 172 | 4460 | – | – | – | – | – |
| CC(C)Nc1ncc2c(n1)CCN(C(=O)c1cc(C(C)C)c(O)cc1O)C2 | 2430 | 222 | 2680 | – | – | – | – | – |
| CCCNc1nc(OCCOC)nc2c1CN(C(=O)c1cc(C(C)C)c(O)cc1O)CC2 | 400 | 32 | 350 | 24.9 | 2.92 | 114 (≈ 257 µM) | 796 | 78.7 |
| CC(C)c1cc(C(=O)N2CCc3nc(N(C)C)ncc3C2)c(O)cc1O | 1020 | 164 | 1390 | – | – | – | – | – |
| Cc1ncc2c(n1)CCN(C(=O)c1cc(Br)c(O)cc1O)C2 | 1530 | 132 | 1730 | – | – | – | – | – |
| CC(C)c1cc(C(=O)N2CCc3nc(OCCN(C)C)ncc3C2)c(O)cc1O | 2380 | 30 | 1580 | 9.7 | 1.04 | 148 (≈ 370 µM) | 290 | 3.25 |
| CC(C)Oc1ncc2c(n1)CCN(C(=O)c1cc(C(C)C)c(O)cc1O)C2 | 1240 | 65 | 960 | 8 | – | – | 518 | – |
| CC(C)c1cc(C(=O)N2CCc3nc(OC4CCN(C)CC4)ncc3C2)c(O)cc1O | 1700 | 76 | 1790 | – | – | – | – | – |

| SMILES | IC50 (HCT-116) [nM] | IC50 [1] [nM] | IC50 (MCF7) [nM] | Ratio IC50 [2] | logD [3] | solubility [4] [µg/mL] | IC50 (Endoplasmin) [nM] | Papp [5] [×10⁻⁶ cm/s] |
| --- | --- | --- | --- | --- | --- | --- | --- | --- |
| COCCOc1nc2c(c(OC(C)C)n1)CN(C(=O)c1cc(C(C)C)c(O)cc1O)CC2 | 740 | 58 | 250 | 22.7 | 3.84 | 40.2 (≈ 90.2 µM) | 1320 | 79.4 |
| CC(C)c1cc(C(=O)N2CCc3nc(OC4CCOCC4)ncc3C2)c(O)cc1O | 600 | 56 | 820 | – | – | – | – | – |
| CCN(CC)c1ncc2c(n1)CCN(C(=O)c1cc(C(C)C)c(O)cc1O)C2 | 4420 | 201 | 2160 | – | – | – | – | – |
| Cc1ncc2c(n1)CN(C(=O)c1cc(Cl)c(O)cc1O)C2 | 10700 | 474 | 5480 | – | – | – | – | – |
| CC(C)c1cc(C(=O)N2CCc3nc(OCCCN(C)C)ncc3C2)c(O)cc1O | 920 | 36 | 2370 | – | 1.09 | 156 (≈ 375 µM) | – | 4.15 |
| CCN1CCN(c2ncc3c(n2)CCN(C(=O)c2cc(C(C)C)c(O)cc2O)C3)CC1 | 1650 | 191 | 1430 | – | – | – | – | – |
| CCCCN(CCCC)c1ncc2c(n1)CCN(C(=O)c1cc(C(C)C)c(O)cc1O)C2 | 1290 | 343 | 1120 | – | – | – | – | – |
| CC(C)c1cc(C(=O)N2CCc3nc(N4CCN(C)CC4)ncc3C2)c(O)cc1O | 1710 | 271 | 2180 | – | – | – | – | – |
| CC(C)c1cc(C(=O)N2CCc3nc(OCCN4CCCCC4)ncc3C2)c(O)cc1O | 780 | 30 | 2330 | – | 1.21 | 175 (≈ 396 µM) | – | 20.5 |
| Cc1ncc2c(n1)CCN(C(=O)c1cc(C(C)C)c(O)cc1O)C2 | 1150 | 26 | 1480 | 9.4 | – | – | 245 | 33.3 |
| CC(C)c1cc(C(=O)N2CCc3nc(OC4CCCCC4)ncc3C2)c(O)cc1O | 2780 | 103 | 1870 | – | – | – | – | – |
| CCCOc1ncc2c(n1)CCN(C(=O)c1cc(C(C)C)c(O)cc1O)C2 | 1080 | 60 | 1340 | 8.3 | – | – | 498 | – |
| Cc1ncc2c(n1)CN(C(=O)c1cc(C(C)C)c(O)cc1O)C2 | 1630 | 38 | 2140 | 1.3 | – | – | 50 | 27 |
| CC(C)COc1ncc2c(n1)CCN(C(=O)c1cc(C(C)C)c(O)cc1O)C2 | 1230 | 65 | 1330 | 10.9 | – | – | 706 | – |
| CC(=O)N1CCN(c2ncc3c(n2)CCN(C(=O)c2cc(C(C)C)c(O)cc2O)C3)CC1 | 1600 | 270 | 3620 | – | – | – | – | – |
| CCCN(CCC)c1ncc2c(n1)CCN(C(=O)c1cc(C(C)C)c(O)cc1O)C2 | 5700 | 370 | 3090 | – | – | – | – | – |
| CCCCOc1ncc2c(n1)CCN(C(=O)c1cc(C(C)C)c(O)cc1O)C2 | 1270 | 88 | 880 | 7.6 | – | – | 670 | – |
| CNc1ncc2c(n1)CCN(C(=O)c1cc(C(C)C)c(O)cc1O)C2 | 740 | 113 | 1250 | – | – | – | – | – |
| CC(C)c1cc(C(=O)N2CCc3nc(OCCN4CCCC4)ncc3C2)c(O)cc1O | 980 | 29 | 1930 | – | 1.12 | 146 (≈ 341 µM) | – | 3.06 |
